The values below come from PubChem BioAssay AID330 (DTP/NCI, 2004).

The test system of the test is P388 leukemia ip, CD2F1 mice, survival T/C. Put plainly: NCI In Vivo Anticancer Drug Screen. Data for tumor model P388 Leukemia (intraperitoneal) in CD2F1 (CDF1) mice. Conditions: endpoint: median survival time, higher = longer survival. The method in brief: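 Mice carrying the transplanted tumor received test compound or vehicle. Survival was recorded in each group, and the value is the treated-group measurement divided by that of the vehicle-treated control group.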

The mark [1] stands for this setting: dose: 100.0 mg/kg/injection, schedule: Q04DX002 (ip), vehicle: saline with Tween-80.
The mark [2] stands for this setting: dose: 200.0 mg/kg/injection, schedule: Q04DX002 (ip), vehicle: saline with Tween-80.
Where [3] appears, read: dose: 400.0 mg/kg/injection, schedule: Q04DX002 (ip), vehicle: saline with Tween-80.
Setting [4] is: dose: 6.25 mg/kg/injection, schedule: Q01DX009 (ip), vehicle: saline with Tween-80.
Where [5] appears, read: dose: 12.5 mg/kg/injection, schedule: Q01DX009 (ip), vehicle: saline with Tween-80.
The mark [6] stands for this setting: dose: 50.0 mg/kg/injection, schedule: Q01DX009 (ip), vehicle: Klucel (hydroxypropylcellulose) (HPC).
[7] abbreviates: dose: 100.0 mg/kg/injection, schedule: Q01DX009 (ip), vehicle: Klucel (hydroxypropylcellulose) (HPC).
Where [8] appears, read: dose: 60.0 mg/kg/injection, schedule: Q01DX005 (ip), vehicle: saline with Tween-80.
Where [9] appears, read: dose: 120.0 mg/kg/injection, schedule: Q01DX005 (ip), vehicle: saline with Tween-80.
[10] abbreviates: dose: 200.0 mg/kg/injection, schedule: Q01DX009 (ip), vehicle: Klucel (hydroxypropylcellulose) (HPC).
Setting [11] is: dose: 50.0 mg/kg/injection, schedule: Q01DX005 (ip), vehicle: saline with Tween-80.
Where [12] appears, read: dose: 100.0 mg/kg/injection, schedule: Q01DX005 (ip), vehicle: saline with Tween-80.
Where [13] appears, read: dose: 200.0 mg/kg/injection, schedule: Q01DX005 (ip), vehicle: saline with Tween-80.

Several values for one entry are separate records, joined by “and”; a condition that tells them apart may be missing. Equal entries are not always repeated. Inconclusive results and toxic doses are left out.

With `O=c1c(N=Nc2ccccc2Cl)c(O)n(-c2ccc(Cl)cc2)c(=S)n1-c1ccc(Br)cc1`, the T/C is 99 % of control under setting [1], 99 % of control under setting [2] and 112 % of control under setting [3].

Take `CCCCCCCCCCNC(=O)C[n+]1cccc(C(=O)NCc2ccccc2)c1`: the T/C is 100 % of control (dose: 3.13 mg/kg/injection, schedule: Q01DX009 (ip), vehicle: saline with Tween-80); 95 % of control under setting [4]; 90 % of control under setting [5].

In the case of `CC(C)(CC(=O)OCCO)c1cc(CC(C)(C)c2cc(CC(C)(C)c3cc(CC(C)(C)C4(C)OCCO4)no3)no2)no1`, the T/C is 88 % of control under setting [1], 87 % of control under setting [2] and 87 % of control under setting [3].

Regarding `CC(=O)O[C@H]1C(=O)[C@]2(C)[C@@H](OC(C)=O)CC3OC[C@@]3(OC(C)=O)[C@H]2[C@H](OC(=O)c2ccccc2)[C@]2(O)C[C@H](OC(=O)[C@H](OC(C)=O)[C@@H](NC(=O)c3ccccc3)c3ccccc3)C(C)=C1C2(C)C` (stereo partly specified), the T/C (dose: 2.5 mg/kg/injection, schedule: Q01DX005 (ip), vehicle: DMSO) was 100 % of control; the T/C (dose: 5.0 mg/kg/injection, schedule: Q01DX005 (ip), vehicle: DMSO) was 102 % of control and 118 % of control; the T/C (dose: 10.0 mg/kg/injection, schedule: Q01DX005 (ip), vehicle: DMSO) is 102 % of control and 124 % of control; the T/C (dose: 12.5 mg/kg/injection, schedule: Q01DX005 (ip), vehicle: DMSO) was 107 % of control; the T/C (dose: 20.0 mg/kg/injection, schedule: Q01DX005 (ip), vehicle: DMSO) was 121 % of control; the T/C (dose: 25.0 mg/kg/injection, schedule: Q01DX005 (ip), vehicle: DMSO) was 120 % of control. The T/C reads like this: (dose: 40.0 mg/kg/injection, schedule: Q01DX005 (ip), vehicle: DMSO) 178 % of control; (dose: 50.0 mg/kg/injection, schedule: Q01DX005 (ip), vehicle: DMSO) 124 % of control; (dose: 100.0 mg/kg/injection, schedule: Q01DX005 (ip), vehicle: DMSO) 120 % of control.

Consider `[N-]=[N+]=NCC1OC(n2cnc3c(=O)[nH]c(N)nc32)C(O)C1O` (stereo unspecified), for which the T/C was 107 % of control (dose: 60.0 mg/kg/injection, schedule: Q01DX005 (ip), vehicle: Klucel (hydroxypropylcellulose) (HPC)); 107 % of control (dose: 120.0 mg/kg/injection, schedule: Q01DX005 (ip), vehicle: Klucel (hydroxypropylcellulose) (HPC)); 106 % of control (dose: 240.0 mg/kg/injection, schedule: Q01DX005 (ip), vehicle: Klucel (hydroxypropylcellulose) (HPC)).

For the compound `CCOc1ccc(C(=O)Nc2c(C)cc(C)cc2C)cc1`, the T/C was 90 % of control (dose: 100.0 mg/kg/injection, schedule: Q01DX009 (ip), vehicle: saline with Tween-80); 95 % of control (dose: 200.0 mg/kg/injection, schedule: Q01DX009 (ip), vehicle: saline with Tween-80); 105 % of control (dose: 400.0 mg/kg/injection, schedule: Q01DX009 (ip), vehicle: saline with Tween-80).

With `O=C1NC2(CCCCC2)C(=O)N1CCCN(CCCl)CCCl`, the T/C is, setting by setting: (dose: 1.5 mg/kg/injection, schedule: Q01DX005 (ip), vehicle: saline) 121 % of control; (dose: 6.0 mg/kg/injection, schedule: Q01DX005 (ip), vehicle: saline) 153 % of control and 156 % of control; (dose: 12.0 mg/kg/injection, schedule: Q01DX005 (ip), vehicle: saline) 178 % of control and 200 % of control and 208 % of control; (dose: 24.0 mg/kg/injection, schedule: Q01DX005 (ip), vehicle: saline) 162 % of control and 210 % of control.

Take `Cc1nc2ccccc2c(=O)n1N1C2CCCC21` (stereo unspecified): the T/C is 103 % of control (dose: 50.0 mg/kg/injection, schedule: Q04DX002 (ip), vehicle: Klucel (hydroxypropylcellulose) (HPC)); 98 % of control (dose: 100.0 mg/kg/injection, schedule: Q04DX002 (ip), vehicle: Klucel (hydroxypropylcellulose) (HPC)); 100 % of control (dose: 200.0 mg/kg/injection, schedule: Q04DX002 (ip), vehicle: Klucel (hydroxypropylcellulose) (HPC)).

For the compound `NC(=O)c1ccc(C(N)=O)cc1`, the T/C runs as follows: under setting [5], 100 % of control; (dose: 25.0 mg/kg/injection, schedule: Q01DX009 (ip), vehicle: saline with Tween-80) 100 % of control; (dose: 50.0 mg/kg/injection, schedule: Q01DX009 (ip), vehicle: saline with Tween-80) 95 % of control.

In the case of `O=P(O)(O)SP(=O)(O)O.[Co]`, the T/C by setting is: under setting [6], 105 % of control; under setting [7], 94 % of control.

Consider `Nc1nc(N)c2c(n1)CCCC2`, for which the T/C was 105 % of control (dose: 6.25 mg/kg/injection, schedule: Q04DX003 (ip), vehicle: saline with Tween-80); 100 % of control (dose: 12.5 mg/kg/injection, schedule: Q04DX003 (ip), vehicle: saline with Tween-80); 100 % of control (dose: 25.0 mg/kg/injection, schedule: Q04DX003 (ip), vehicle: saline with Tween-80).

For `CC(=O)CCC1C(=O)N(C)C(=O)c2ccccc21` (stereo unspecified), the T/C was 98 % of control under setting [8]; 99 % of control under setting [9]; 91 % of control (dose: 240.0 mg/kg/injection, schedule: Q01DX005 (ip), vehicle: saline with Tween-80).

Take `CCOC(=O)C1=C(C)NC(C)=C(C(=O)OCC)C1c1ccccn1`: the T/C was 99 % of control under setting [6], 97 % of control under setting [7] and 96 % of control under setting [10].

For `Cc1cc(=O)oc2c1ccc1c(O)cccc12`, the T/C by setting is: under setting [8], 106 % of control; under setting [9], 100 % of control.

Consider `CC1(C)CC2(C)OCCN2C(=S)N1` (stereo unspecified), for which the T/C was 100 % of control under setting [6], 90 % of control under setting [7] and 89 % of control under setting [10].

On to `CCOCC(=O)N[C@H]1CCc2cc(OC)c(OC)c(OC)c2-c2ccc(OC)c(=O)cc21`, for which the T/C runs as follows: (dose: 0.31 mg/kg/injection, schedule: Q01DX009 (ip), vehicle: water) 150 % of control; (dose: 0.63 mg/kg/injection, schedule: Q01DX009 (ip), vehicle: water) 171 % of control; (dose: 1.25 mg/kg/injection, schedule: Q01DX009 (ip), vehicle: water) 198 % of control and 221 % of control.

On to `C=CCOc1cc2c(cc1C(C)c1ccc(OC)c(OC)c1)OCO2` (stereo unspecified), for which the T/C is 99 % of control under setting [11], 100 % of control under setting [12] and 95 % of control under setting [13].

As to `Cc1ccnc(N=Cc2ccccc2O)c1`, the T/C is 104 % of control under setting [6], 100 % of control under setting [7] and 100 % of control under setting [10].

Turning to `CCCCNP(=O)(N1CC1CC)N1CC1CC` (stereo unspecified), the T/C (dose: 50.0 mg/kg/injection, schedule: Q01DX009 (ip), vehicle: saline) was 122 % of control; the T/C (dose: 100.0 mg/kg/injection, schedule: Q01DX009 (ip), vehicle: saline) was 150 % of control; the T/C (dose: 200.0 mg/kg/injection, schedule: Q01DX009 (ip), vehicle: saline) was 104 % of control; the T/C (dose: 300.0 mg/kg/injection, schedule: Q04DX003 (ip), vehicle: saline) is 195 % of control.

In the case of `CC1(C)OC(C(F)(F)F)(C(F)(F)F)c2cc(C(C)(C)C)cc(C(O)(C(F)(F)F)C(F)(F)F)c2S1`, the T/C (dose: 30.0 mg/kg/injection, schedule: Q01DX005 (ip), vehicle: saline with Tween-80) is 120 % of control; the T/C under setting [11] is 106 % of control; the T/C under setting [8] is 113 % of control; the T/C under setting [12] was 120 % of control; the T/C under setting [9] is 112 % of control; the T/C under setting [13] was 115 % of control.

For the compound `CCn1c2nc(=O)n(C)c(=O)c-2[n+]([O-])c2cc(Br)ccc21`, the T/C (dose: 6.25 mg/kg/injection, schedule: Q04DX002 (ip), vehicle: saline with Tween-80) was 100 % of control; the T/C (dose: 12.5 mg/kg/injection, schedule: Q04DX002 (ip), vehicle: saline with Tween-80) is 96 % of control; the T/C (dose: 25.0 mg/kg/injection, schedule: Q04DX002 (ip), vehicle: saline with Tween-80) is 89 % of control and 92 % of control.

Take `Cc1cc(OCCCCCCC[N+](C)(C)Cc2ccc([N+](=O)[O-])o2)c(C(C)C)cc1Cl`: the T/C by setting is: (dose: 12.5 mg/kg/injection, schedule: Q04DX003 (ip), vehicle: saline) 99 % of control; (dose: 25.0 mg/kg/injection, schedule: Q04DX003 (ip), vehicle: saline) 92 % of control.

With `OC(c1cc2cc(Cl)ccc2c2cc(C(F)(F)F)ccc12)C1CCCCN1` (stereo unspecified), the T/C is 106 % of control under setting [4] and 106 % of control under setting [5].
